From ChEMBL document CHEMBL1129485, “Bis(31/31') ([CYS(31), Trp(32), Nva(34)] NPY-(31-36)): a specific NPY Y-1 receptor antagonist” (J Med Chem, 1996) come the findings set out here.

Positions of bridges follow the written chain, without caps; N, C: chain ends. Non-standard residues stand in square brackets, D forms with d. Residues, ends and D or L forms follow the SMILES beside them. Chains are numbered I, II in the order given. Nva = CCC[C@H](N)C(=O)O

The target in experiment [1] is T1, Neuropeptide Y receptor type 2 (Homo sapiens, UniProt P49146).
T1 sequence (P49146 whole entry): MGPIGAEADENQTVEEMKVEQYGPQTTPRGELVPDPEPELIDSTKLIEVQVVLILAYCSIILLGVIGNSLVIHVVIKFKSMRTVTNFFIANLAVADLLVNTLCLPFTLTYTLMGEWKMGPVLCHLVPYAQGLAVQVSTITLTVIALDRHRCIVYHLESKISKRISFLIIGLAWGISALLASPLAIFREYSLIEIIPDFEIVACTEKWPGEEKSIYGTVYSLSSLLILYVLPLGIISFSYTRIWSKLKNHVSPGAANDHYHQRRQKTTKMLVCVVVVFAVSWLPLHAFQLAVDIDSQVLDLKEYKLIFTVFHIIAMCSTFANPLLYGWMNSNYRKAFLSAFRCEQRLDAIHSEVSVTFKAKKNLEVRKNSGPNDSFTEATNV
Briefly: Compound was tested for the displacement of [125I]-PYY(3-36) (SK-N-BE2) from Neuropeptide Y receptor type 2 in the membranes prepared from cells. The experiment is classed as cell membranes.

The target in experiment [2] is T2, Neuropeptide Y receptor type 1 (Homo sapiens, UniProt P25929).
T2 sequence (P25929 whole entry): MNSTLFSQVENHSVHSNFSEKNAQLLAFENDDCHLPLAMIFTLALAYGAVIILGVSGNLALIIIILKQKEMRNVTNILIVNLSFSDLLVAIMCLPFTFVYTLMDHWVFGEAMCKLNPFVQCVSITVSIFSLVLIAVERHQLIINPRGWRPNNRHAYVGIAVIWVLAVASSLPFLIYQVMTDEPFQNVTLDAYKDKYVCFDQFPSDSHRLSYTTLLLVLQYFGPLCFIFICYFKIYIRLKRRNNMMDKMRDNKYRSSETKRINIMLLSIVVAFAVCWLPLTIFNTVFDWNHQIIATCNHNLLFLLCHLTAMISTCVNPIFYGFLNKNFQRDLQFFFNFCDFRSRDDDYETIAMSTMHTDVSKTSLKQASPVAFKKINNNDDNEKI
Briefly: Compound was tested for the displacement of [125I]-PYY (SK-N-MC) from Neuropeptide Y receptor type 1 in the membranes prepared from cells. The experiment is classed as cell membranes.

Turning to `CCC[C@H](NC(=O)[C@H](CCCN=C(N)N)NC(=O)[C@@H](Cc1c[nH]c2ccccc12)NC(=O)[C@H](CSSC[C@H](NC(=O)[C@H](CC(C)C)NC(=O)[C@H](Cc1c[nH]c2ccccc12)NC(=O)[C@@H](N)Cc1ccc(O)cc1)C(=O)N[C@H](Cc1c[nH]c2ccccc12)C(=O)N[C@@H](CCCN=C(N)N)C(=O)N[C@@H](CCC)C(=O)N[C@@H](CCCN=C(N)N)C(=O)N[C@@H](Cc1ccc(O)cc1)C(N)=O)NC(=O)[C@H](CC(C)C)NC(=O)[C@H](Cc1c[nH]c2ccccc12)NC(=O)[C@@H](N)Cc1ccc(O)cc1)C(=O)N[C@@H](CCCN=C(N)N)C(=O)N[C@@H](Cc1ccc(O)cc1)C(N)=O`, the Ki in experiment [1] was 0.704 µM; in experiment [2], 0.143 µM.

Turning to `CCC[C@H](NC(=O)[C@H](CCCN=C(N)N)NC(=O)[C@H](Cc1c[nH]c2ccccc12)NC(=O)[C@H](CSSC[C@H](NC(=O)[C@H](CC(C)C)NC(=O)[C@H](Cc1c[nH]c2ccccc12)NC(=O)[C@@H](N)Cc1ccc(O)cc1)C(=O)N[C@@H](Cc1c[nH]c2ccccc12)C(=O)N[C@@H](CCCN=C(N)N)C(=O)N[C@@H](CCC)C(=O)N[C@@H](CCCN=C(N)N)C(=O)N[C@@H](Cc1ccc(O)cc1)C(N)=O)NC(=O)[C@H](CC(C)C)NC(=O)[C@H](Cc1c[nH]c2ccccc12)NC(=O)[C@@H](N)Cc1ccc(O)cc1)C(=O)N[C@@H](CCCN=C(N)N)C(=O)N[C@@H](Cc1ccc(O)cc1)C(N)=O`, the Ki turned out to be 0.621 µM in experiment [1] and 0.093 µM in experiment [2].

In the case of `CCC[C@H](NC(=O)[C@H](CCCNC(=N)N)NC(=O)[C@H](Cc1c[nH]c2ccccc12)NC(=O)[C@@H](N)CSSC[C@H](N)C(=O)N[C@@H](Cc1c[nH]c2ccccc12)C(=O)N[C@@H](CCCNC(=N)N)C(=O)N[C@@H](CCC)C(=O)N[C@@H](CCCNC(=N)N)C(=O)N[C@@H](Cc1ccc(O)cc1)C(N)=O)C(=O)N[C@@H](CCCNC(=N)N)C(=O)N[C@@H](Cc1ccc(O)cc1)C(N)=O` (I: H-CWR[Nva]RY-NH2 / II: H-CWR[Nva]RY-NH2; disulfide I:1-II:1), the Ki was greater than 10 µM in experiment [1] and 0.046 µM in experiment [2].

For the compound `CCC[C@H](NC(=O)[C@H](CCCN=C(N)N)NC(=O)[C@@H](NC(=O)[C@H](CSSC[C@H](NC(=O)[C@H](CC(C)C)NC(=O)[C@@H](NC(=O)[C@@H](N)Cc1ccc(O)cc1)[C@@H](C)CC)C(=O)N[C@H](C(=O)N[C@@H](CCCN=C(N)N)C(=O)N[C@@H](CCC)C(=O)N[C@@H](CCCN=C(N)N)C(=O)N[C@@H](Cc1ccc(O)cc1)C(N)=O)[C@@H](C)O)NC(=O)[C@H](CC(C)C)NC(=O)[C@@H](NC(=O)[C@@H](N)Cc1ccc(O)cc1)[C@@H](C)CC)[C@@H](C)O)C(=O)N[C@@H](CCCN=C(N)N)C(=O)N[C@@H](Cc1ccc(O)cc1)C(N)=O` (I: H-YILCTR[Nva]RY-NH2 / II: H-YILCTR[Nva]RY-NH2; disulfide I:4-II:4), the Ki in experiment [1] was determined as 3.98 µM; in experiment [2], 0.049 µM.

Turning to `CCC[C@H](NC(=O)[C@H](CCCNC(=N)N)NC(=O)[C@H](Cc1c[nH]c2ccccc12)NC(=O)[C@H](CSSC[C@H](NC(=O)[C@H](CC(C)C)NC(=O)[C@@H](NC(=O)[C@@H](N)Cc1ccc(O)cc1)[C@@H](C)CC)C(=O)N[C@@H](Cc1c[nH]c2ccccc12)C(=O)N[C@@H](CCCNC(=N)N)C(=O)N[C@@H](CCC)C(=O)N[C@@H](CCCNC(=N)N)C(=O)N[C@@H](Cc1ccc(O)cc1)C(N)=O)NC(=O)[C@H](CC(C)C)NC(=O)[C@@H](NC(=O)[C@@H](N)Cc1ccc(O)cc1)[C@@H](C)CC)C(=O)N[C@@H](CCCNC(=N)N)C(=O)N[C@@H](Cc1ccc(O)cc1)C(N)=O` (I: H-YILCWR[Nva]RY-NH2 / II: H-YILCWR[Nva]RY-NH2; disulfide I:4-II:4), the values for the Ki in experiment [1] and in experiment [2] were 0.988 µM and 0.095 µM, respectively.

Take `CCC[C@H](NC(=O)[C@H](CCCN=C(N)N)NC(=O)[C@@H](NC(=O)[C@H](CSSC[C@H](NC(=O)[C@H](CC(C)C)NC(=O)[C@H](CC(N)=O)NC(=O)[C@@H](NC(=O)[C@@H](N)Cc1ccc(O)cc1)[C@@H](C)CC)C(=O)N[C@H](C(=O)N[C@@H](CCCN=C(N)N)C(=O)N[C@@H](CCC)C(=O)N[C@@H](CCCN=C(N)N)C(=O)N[C@@H](Cc1ccc(O)cc1)C(N)=O)[C@@H](C)O)NC(=O)[C@H](CC(C)C)NC(=O)[C@H](CC(N)=O)NC(=O)[C@@H](NC(=O)[C@@H](N)Cc1ccc(O)cc1)[C@@H](C)CC)[C@@H](C)O)C(=O)N[C@@H](CCCN=C(N)N)C(=O)N[C@@H](Cc1ccc(O)cc1)C(N)=O` (I: H-YINLCTR[Nva]RY-NH2 / II: H-YINLCTR[Nva]RY-NH2; disulfide I:5-II:5): the Ki in experiment [1] was 2.08 µM; in experiment [2], 0.036 µM.

`CCC[C@H](NC(=O)[C@H](CCCN=C(N)N)NC(=O)[C@H](Cc1c[nH]c2ccccc12)NC(=O)[C@H](CSSC[C@H](NC(=O)[C@H](CC(C)C)NC(=O)[C@H](CC(N)=O)NC(=O)[C@@H](NC(=O)[C@@H](N)Cc1ccc(O)cc1)[C@@H](C)CC)C(=O)N[C@@H](Cc1c[nH]c2ccccc12)C(=O)N[C@@H](CCCN=C(N)N)C(=O)N[C@@H](CCC)C(=O)N[C@@H](CCCN=C(N)N)C(=O)N[C@@H](Cc1ccc(O)cc1)C(N)=O)NC(=O)[C@H](CC(C)C)NC(=O)[C@H](CC(N)=O)NC(=O)[C@@H](NC(=O)[C@@H](N)Cc1ccc(O)cc1)[C@@H](C)CC)C(=O)N[C@@H](CCCN=C(N)N)C(=O)N[C@@H](Cc1ccc(O)cc1)C(N)=O` (I: H-YINLCWR[Nva]RY-NH2 / II: H-YINLCWR[Nva]RY-NH2; disulfide I:5-II:5): the Ki was determined as 3.41 µM in experiment [1] and 0.044 µM in experiment [2].
